Earlier results, collected in patent publication US10610489B2, “Pharmaceutical composition, pharmaceutical dosage form, process for their preparation, methods for treating and uses thereof” (Boehringer Ingelheim International GmbH, priority 2009, dated 2020).

Tested on: HbA1c
Conditions: metformin on its own, in the diabetic

For `CN(C)C(=N)N=C(N)N` [metformin, dimethyldiguanide], the “average improvement in the HbA1c value” is listed as 1.0-1.5%.
